Assays:
[1] = target: T1, human σ2/TMEM97 receptor (Homo sapiens, UniProt Q5BJF2); test: Binding assay to human σ2/TMEM97 receptor ([3H]-DTG); conditions: transfected HEK-293 membranes, 10 nM [3H]-DTG, 25° C., 120 minutes; read-out: Binding σ-[…] (binding to σ2-receptor expressed as Ki)
T1 construct: expressed in transfected cells; host or cells: HEK-293
Experimental: Binding Assay to Human σ2/TMEM97 Receptor.
Transfected HEK-293 membranes (15 μg) were incubated with 10 nM [^3H]-1,3-Di-o-tolylguanidine (DTG) in assay buffer containing Tris-HCl 50 mM at pH 8.0. NSB (non-specific binding) was measured by adding 10 μM haloperidol. The binding of the test compound was measured at either one concentration (% inhibition at 1 or 10 µM) or five different concentrations to determine affinity values (Ki). Plates were incubated at 25° C. for 120 minutes. After the incubation period, the reaction mix was transferred to MultiScreen HTS, FC plates (Millipore), filtered and washed 3 times with ice-cold 10 mM Tris-HCL (pH 8.0). Filters were dried and counted at approximately 40% efficiency in a MicroBeta scintillation counter (Perkin-Elmer) using EcoScint liquid scintillation cocktail.

[2] = target: T2, human σ1 receptor (Homo sapiens, UniProt Q99720); test: Human σ1 receptor radioligand assay ([3H](+)-pentazocine); format: binding; conditions: transfected HEK-293 membranes, 5 nM [3H](+)-pentazocine, 37° C., 120 minutes; read-out: Binding σ-[…] (binding to σ1-receptor expressed as Ki)
T2 construct: expressed in transfected cells; host or cells: HEK-293
Experimental: Human σ1 Receptor Radioligand Assay
NBS (non-specific binding) was measured by adding 10 μM haloperidol. The binding of the test compound was measured at either one concentration (% inhibition at 1 or 10 µM) or five different concentrations to determine affinity values (Ki). Plates were incubated at 37° C. for 120 minutes. After the incubation period, the reaction mix was then transferred to MultiScreen HTS, FC plates (Millipore), filtered and plates were washed 3 times with ice-cold 10 mM Tris-HCL (pH7.4). Filters were dried and counted at approximately 40% efficiency in a MicroBeta scintillation counter (Perkin-Elmer) using EcoScint liquid scintillation cocktail.

T1 sequence (Q5BJF2 whole entry): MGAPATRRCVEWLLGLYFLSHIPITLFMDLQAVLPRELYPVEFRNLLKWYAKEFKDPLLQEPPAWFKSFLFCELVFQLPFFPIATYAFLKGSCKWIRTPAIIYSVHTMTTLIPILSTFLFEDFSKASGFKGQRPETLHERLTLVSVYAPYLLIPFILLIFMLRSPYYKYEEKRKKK
T2 sequence (Q99720 whole entry): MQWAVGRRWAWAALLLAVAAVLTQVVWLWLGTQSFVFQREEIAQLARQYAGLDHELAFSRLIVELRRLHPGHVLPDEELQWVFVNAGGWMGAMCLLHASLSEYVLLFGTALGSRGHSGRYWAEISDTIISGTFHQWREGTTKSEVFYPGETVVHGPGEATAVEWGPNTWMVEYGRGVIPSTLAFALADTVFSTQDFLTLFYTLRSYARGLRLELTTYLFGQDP

SMILES | Ki [1] [nM] | Ki [2] [nM]
Cc1ccc2c(n1)C(C)(C)CN2C(=O)N1CCC2(CCN(Cc3ccc(F)c(C#N)c3)CC2)CC1 [Example 162, 2-fluoro-5-((9-(3,3,5-trimethyl-2,3-dihydro-1H-pyrrolo[3,2-b]pyridine-1-carbonyl)-3,9-diazaspiro[5.5]undecan-3-yl)methyl)benzonitrile] | 100 to 500 | 100 to 500
Cc1ccc2c(n1)C(C)(C)CN2C(=O)NC1CCN(CCC(C)C)CC1 [Example 25, N-(1-isopentylpiperidin-4-yl)-3,3,5-trimethyl-2,3-dihydro-1H-pyrrolo[3,2-b]pyridine-1-carboxamide] | 100 to 500 | < 100
Cc1ccc2c(n1)C(C)(C)CN2C(=O)[C@H]1CC[C@H](N(C)Cc2ccc(F)cc2)CC1 [Example 182, ((1r,4r)-4-((4-fluorobenzyl)(methyl)amino)cyclohexyl)(3,3,5-trimethyl-2,3-dihydro-1H-pyrrolo[3,2-b]pyridin-1-yl)methanone] | < 100 | < 100
O=C(N1CC[C@H](NCCc2ccccc2)C1)N1CCc2ncccc21 [Example 97, (S)-(2,3-dihydro-1H-pyrrolo[3,2-b]pyridin-1-yl)(3-(phenethylamino)pyrrolidin-1-yl)methanone] | > 1000 | 500 to 1000
Cc1ccc2c(n1)C(C)(C)CN2C(=O)N1C[C@H]2CN(Cc3ccccc3)C[C@H]2C1 [Example 36, ((3aR,6aS)-5-benzylhexahydropyrrolo[3,4-c]pyrrol-2(1H)-yl)(3,3,5-trimethyl-2,3-dihydro-1H-pyrrolo[3,2-b]pyridin-1-yl)methanone] | 500 to 1000 | 100 to 500
Cc1ccc2c(n1)C(C)(C)CN2C(=O)N1CCC2(CCN(CC3CCOCC3)CC2)CC1 [Example 161, (9-((tetrahydro-2H-pyran-4-yl)methyl)-3,9-diazaspiro[5.5]undecan-3-yl)(3,3,5-trimethyl-2,3-dihydro-1H-pyrrolo[3,2-b]pyridin-1-yl)methanone] | < 100 | 100 to 500
Cc1ccc2c(n1)C(C)(C)CN2C(=O)[C@H]1C[C@H](NCc2ccccc2)C1 [Example 134, ((1r,3r)-3-(benzylamino)cyclobutyl)(3,3,5-trimethyl-2,3-dihydro-1H-pyrrolo[3,2-b]pyridin-1-yl)methanone] | > 1000 | 100 to 500
Cc1ccc2c(n1)C(C)(C)CN2C(=O)N1CCC(N(C)Cc2cccc(C#N)c2)CC1 [Example 118, 3-((methyl(1-(3,3,5-trimethyl-2,3-dihydro-1H-pyrrolo[3,2-t]pyridine-1-carbonyl)piperidin-4-yl)amino)methyl)benzonitrile] | < 100 | > 1000
Cc1ccc2c(n1)C(C)(C)CN2C(=O)[C@H]1CC[C@H](NCc2ccccc2F)CC1 [Example 188, ((1r,4r)-4-((2-fluorobenzyl)amino)cyclohexyl)(3,3,5-trimethyl-2,3-dihydro-1H-pyrrolo[3,2-b]pyridin-1-yl)methanone] | < 100 | < 100
Cc1ccc2c(n1)C(C)(C)CN2C(=O)N1CCC(N(C)Cc2ccccn2)CC1 [Example 73, (4-(methyl(pyridin-2-ylmethyl)amino)piperidin-1-yl)(3,3,5-trimethyl-2,3-dihydro-1H-pyrrolo[3,2-b]pyridin-1-yl)methanone] | 500 to 1000 | > 1000

Next, values leading:

Ki [1] [nM] | Ki [2] [nM] | SMILES
< 100 | < 100 | CC1(C)CN(C(=O)N2CCC3(CCN(Cc4ccc(C#N)cc4F)CC3)CC2)c2cccnc21 [Example 165, 4-((9-(3,3-dimethyl-2,3-dihydro-1H-pyrrolo[3,2-b]pyridine-1-carbonyl)-3,9-diazaspiro[5.5]undecan-3-yl)methyl)-3-fluorobenzonitrile]
< 100 | 500 to 1000 | Cc1ccc2c(n1)C(C)(C)CN2C(=O)N1CCC(N(C)Cc2cccc(F)c2)CC1 [Example 116, (4-((3-fluorobenzyl)(methyl)amino)piperidin-1-yl)(3,3,5-trimethyl-2,3-dihydro-1H-pyrrolo[3,2-b]pyridin-1-yl)methanone]
< 100 | > 1000 | CN(Cc1ccc(F)c(C#N)c1)C1CCN(C(=O)N2CC(C)(C)c3ncccc32)CC1 [Example 45, 5-(((1-(3,3-dimethyl-2,3-dihydro-1H-pyrrolo[3,2-b]pyridine-1-carbonyl)piperidin-4-yl)(methyl)amino)methyl)-2-fluorobenzonitrile]
< 100 | 100 to 500 | COc1ccc(CN2CCC3(CC2)CCN(C(=O)N2CC(C)(C)c4nc(C)ccc42)C3)cc1 [Example 103, (8-(4-methoxybenzyl)-2,8-diazaspiro[4.5]decan-2-yl)(3,3,5-trimethyl-2,3-dihydro-1H-pyrrolo[3,2-b]pyridin-1-yl)methanone]
< 100 | > 1000 | COc1cccc(CN2CCC3(CC2)CCN(C(=O)N2CC(C)(C)c4nc(C)ccc42)C3)c1 [Example 95, (8-(3-methoxybenzyl)-2,8-diazaspiro[4.5]decan-2-yl)(3,3,5-trimethyl-2,3-dihydro-1H-pyrrolo[3,2-b]pyridin-1-yl)methanone]
100 to 500 | > 1000 | CN(Cc1cccc(C#N)c1)C1CCN(C(=O)N2CC(C)(C)c3ncccc32)CC1 [Example 83, 3-(((1-(3,3-dimethyl-2,3-dihydro-1H-pyrrolo[3,2-b]pyridine-1-carbonyl)piperidin-4-yl)(methyl)amino)methyl)benzonitrile]
< 100 | > 1000 | Cc1ccc2c(n1)C(C)(C)CN2C(=O)N1CCC2(CCN(C3CCOCC3)CC2)C1 [Example 110, (8-(tetrahydro-2H-pyran-4-yl)-2,8-diazaspiro[4.5]decan-2-yl)(3,3,5-trimethyl-2,3-dihydro-1H-pyrrolo[3,2-b]pyridin-1-yl)methanone]
> 1000 | < 100 | CC1(C)CN(C(=O)NC2CCN(Cc3ccc(F)c(F)c3)CC2)c2cccnc21 [Example 46, N-(1-(3,4-difluorobenzyl)piperidin-4-yl)-3,3-dimethyl-2,3-dihydro-1H-pyrrolo[3,2-b]pyridine-1-carboxamide]
< 100 | < 100 | CN(Cc1cc(F)ccc1F)[C@H]1CC[C@H](C(=O)N2CC(C)(C)c3ncccc32)CC1 [Example 176, ((1r,4r)-4-((2,5-difluorobenzyl)(methyl)amino)cyclohexyl)(3,3-dimethyl-2,3-dihydro-1H-pyrrolo[3,2-b]pyridin-1-yl)methanone]
100 to 500 | 100 to 500 | CC1(C)CN(C(=O)NC2CC3(CCN(Cc4ccccc4)CC3)C2)c2cccnc21 [Example 104, N-(7-benzyl-7-azaspiro[3.5]nonan-2-yl)-3,3-dimethyl-2,3-dihydro-1H-pyrrolo[3,2-b]pyridine-1-carboxamide]
> 1000 | 500 to 1000 | Cc1ccc2c(n1)CCN2C(=O)NC[C@@H](c1ccccc1)N(C)C [Example 6, (R)—N-(2-(dimethylamino)-2-phenylethyl)-5-methyl-2,3-dihydro-1H-pyrrolo[3,2-t]pyridine-1-carboxamide]
< 100 | 100 to 500 | Cc1ccc2c(n1)C(C)(C)CN2C(=O)[C@H]1CC[C@H](N(C)Cc2ccnc(C(F)(F)F)c2)CC1 [Example 177, ((1r,4r)-4-(methyl((2-(trifluoromethyl)pyridin-4-yl)methyl)amino)cyclohexyl)(3,3,5-trimethyl-2,3-dihydro-1H-pyrrolo[3,2-b]pyridin-1-yl)methanone]

— patent US20240174671A1, “New 2,3-Dihydro-1H-pyrrolo[3,2-b]pyridine Derivatives as Sigma Ligands” (ACONDICIONAMIENTO TARRASENSE, priority 2021, published 2024)
